Measured values published in ChEMBL document CHEMBL4020745 (Bioorg Med Chem Lett, 2017).

What was measured:
Format in all cases: cell-based
[1] = molecular target: T1, Peroxisome proliferator-activated receptor gamma (Homo sapiens, UniProt P37231); experiment: Transrepression activity at human PPARgamma expressed in HEK293 cells assessed as inhibition of TNFalpha induced NF-kappaB promoter activity pretreated for 4 hrs followed by TNFalpha stimulation after 3 hrs by luciferase reporter gene assay
T1 sequence (P37231 whole entry): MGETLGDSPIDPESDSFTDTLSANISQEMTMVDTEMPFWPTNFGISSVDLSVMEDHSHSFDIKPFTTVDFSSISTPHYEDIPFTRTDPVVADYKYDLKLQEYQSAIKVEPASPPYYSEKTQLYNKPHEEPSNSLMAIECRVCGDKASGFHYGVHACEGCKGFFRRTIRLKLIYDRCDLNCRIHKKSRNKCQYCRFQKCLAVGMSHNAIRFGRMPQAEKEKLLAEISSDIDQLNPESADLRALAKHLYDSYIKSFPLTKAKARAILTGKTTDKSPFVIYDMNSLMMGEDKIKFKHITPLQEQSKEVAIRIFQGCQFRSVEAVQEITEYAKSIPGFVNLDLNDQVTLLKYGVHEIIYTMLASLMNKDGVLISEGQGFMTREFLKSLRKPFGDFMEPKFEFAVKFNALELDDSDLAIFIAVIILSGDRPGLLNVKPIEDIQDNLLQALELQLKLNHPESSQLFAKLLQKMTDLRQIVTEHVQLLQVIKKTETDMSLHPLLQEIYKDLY

HEK293 = experiment: Cytotoxicity against HEK293 cells harboring beta-galactosidase expression plasmid assessed as effect on beta-galactosidase activity; settings: human
[2] = molecular target: T1, Peroxisome proliferator-activated receptor gamma; experiment: Transactivation activity at Gal4 fused […] human PPARgamma LBD expressed in HEK293 cells after 24 hrs by luciferase reporter gene assay
[3] = Inhibition of TNFalpha induced NF-kappaB (unknown origin) activation expressed in PPARgamma deficient HEK293 cells pretreated for 4 hrs followed by TNFalpha stimulation after 3 hrs by luciferase reporter gene assay; settings: Homo sapiens

Row | Structure (SMILES) | IC50 [1] [µM] | Activity (HEK293) | EC50 [2] [µM] | IC50 [3] [µM]
1 | CN(CCOc1ccc(CC2SC(=O)NC2=O)cc1)c1nc2ccccc2s1 (stereo unspecified) | 20 | Non-Toxic | 0.057 | 
2 | CN(CCOc1ccc(/C=C2\SC(=O)NC2=O)cc1)c1ccc2ccccc2c1 | 40 | Non-Toxic | 1.6 | 
3 | CN(CCOc1ccc(/C=C2\SC(=O)NC2=O)cc1)c1nccs1 | 42 | Non-Toxic | 0.7 | 
4 | CCN(CCOc1ccc(CC2SC(=O)NC2=O)cc1)c1nc2ccccc2s1 (stereo unspecified) | 25 | Non-Toxic | 0.052 | 
5 | CCN(CCOc1ccc(/C=C2\SC(=O)NC2=O)cc1)c1ccccn1 | 15 | Non-Toxic | 0.36 | 
6 | CN(CCOc1ccc(/C=C2\SC(=O)NC2=O)cc1)c1nc2ccccc2[nH]1 | 38 | Non-Toxic | 3.4 | 
7 | CCN(CCOc1ccc(/C=C2\SC(=O)NC2=O)cc1)c1nc2ccccc2s1 | 17 | Non-Toxic | 0.82 | 
8 | O=C1NC(=O)/C(=C/c2ccc(OCCNc3nc4ccccc4s3)cc2)S1 | 14 | Non-Toxic | 0.053 | 29
9 | CCN(CCOc1ccc(CC2SC(=O)NC2=O)cc1)c1ccccn1 (stereo unspecified) | 21 | Non-Toxic | 0.54 | 
10 | CC(C)N(CCOc1ccc(CC2SC(=O)NC2=O)cc1)c1nc2ccccc2s1 (stereo unspecified) | 20 | Non-Toxic | 0.53 | 
11 | CN(CCOc1ccc(/C=C2\SC(=O)NC2=O)cc1)c1nc2ccccc2s1 | 13 | Non-Toxic | 0.31 | 
12 | CCc1ccc(CCOc2ccc(CC3SC(=O)NC3=O)cc2)nc1 (stereo unspecified) [PIOGLITAZONE] |  | Non-Toxic |  | 
13 | CN(CCOc1ccc(CC2SC(=O)NC2=O)cc1)c1ccccn1 (stereo unspecified) [ROSIGLITAZONE] |  | Non-Toxic |  | 
